One test concerns adipose cells. Description: Glucose uptake (3H-deoxy glucose) in fresh rat adipocytes. The test is classed as cell-based. The conditions noted are these: for glucose uptake: 10 μM compound, fresh adipocytes, without insulin, vs control (vehicle). On the procedure: To 3 ml of KRBH buffer with 10 mg collagenase, 3g epididymal fat pad (from 2-3 male rats lightly ether anesthesised and then decapitated) was introduced. The fat was cut up with scissors. The pieces of fat were swirled and shaken in the collagenase solution in a 37° C. water bath, set at 100-150 repetitions/minute, for approximately 1 hour with swirling every 15 minutes while digesting and every 5 minutes towards the end. About 6 ml of buffer was then added to the vial. The content of the vial was gently squeezed through a 250 μ nylon mesh into a 50 ml plastic tube. The residual fat tissue was washed (the total volume for each wash was 15 ml): the tube was centrifuged whereby the adipose cells floated at the top of the liquid. The buffer was removed using a syringe with polyethylene capillary. Buffer was added to get 15 ml and clumps of adipose cells were broken up by gently mixing up and down. This procedure was repeated for a total of 4 centrifugations: 3 centrifugations at 1000 rpm with the last centrifugation at 2000 rpm. At this point, the buffer was removed. Fresh buffer was added to the cell suspension to form a cytocrit of 5-10%. The cells were rolled at 10 rpm at 37° C. for 1 hour.
50 μl 0.1% BSA in PBS was placed with compounds comprising IRK-derived peptides (final concentrations: 0.1-50 μM) or the peptide-vehicle in each 2 ml plastic tube in duplicates. 950 μl aliquots of the cell suspension were added to the tubes. After incubation for 1 hour at 37° C. in a roller (10 rpm), 200 ul of insulin was added to certain tubes to get final concentrations of 2.5-1000 uU/ml and than 200 μl of KRBH buffer containing 3H—Deoxy Glucose (approx. 1200 dpm/μl) was added to each tube. After 30 minutes incubation with the 3H-DOG and insulin at 37° C., 200 μl aliquots were transferred to microcentrifuge tubes containing 200 μl Dinonyl phthalate in duplicates. Cells were rapidly separated from the aqueous buffer by centrifugation at 10,000 g for 60 sec. The cells were isolated in the top layer of the dinonyl phthalate phase. The upper part of the tube (which contains the cells) was cut and transferred to scintillation tube. 4 ml of scintillation liquid was added.
Cell associated radioactivity was counted in a liquid scintillation beta counter.
Glucose-uptake was measured in fresh adipocytes, incubated with or without insulin (10 μ/ml) as described above, in the absence (vehicle) or the presence of 10 μM of a compound K094A107 (“107”) SEQ ID NO: 102; or K094A205 (“205”) (SEQ ID NO: 123), which was kept in a reducing environment (5 to 25 μM DTT) As a comparison the glucose uptake with insulin alone was determined.

The next test deals with IRK. The test can be described thus: Western blot, phosphorylation of IRK in H4 cells. Set-up: dose or concentration left out as unconfirmed. To be noted: pre-incubated 3 hours with compound, FIG. 9. It counts as cell-based, rat. On the procedure: (§1) All experiments were carried out with H4 cells (Rat hepatoma cell line).Cells were pre-incubated with the compound K094A107 comprising an IRK-derived peptide (SEQ ID NO: 102)(10mM) or the corresponding controls for 3 hours ( one control was control -no treatment vehicle only, the second control was an irrelevant peptide derived from a non-A-region of a kinase), and with human recombinant insulin (100 nM), for 5 minutes. The cells were then lysed and cell lysates were subjected to Western Blot analysis followed by detection with ECL.
(§2) The membrane was incubated overnight with a primary polyclonal Anti-PhosphoPKB (phospho-serine 473 PKB)Ab, or with an antibody for IRK and then, after 3 washes with TBST, with secondary HRP antibody was added for 1 hour. In the second gel the membrane was incubated overnight with a primary monoclonal PhosphoTyrosine Kinase (PY99) Ab that labels phosphorylated tyrosine, and then after 3 washes with TBST, a secondary antibody was added for 1 hour.
Background: In western blotting, separated proteins are transferred to a membrane and probed.

The subject of another test is PKB. The test can be described thus: Western blot, phosphorylation of PKB in H4 cells. It counts as cell-based, rat. Set-up: dose or concentration left out as unconfirmed. The conditions noted are these: pre-incubated 3 hours with compound, phospho-serine 473, FIG. 9. How it is done: as §1, §2
A further test relates to Erk1. Description: Western blot, phosphorylation of downstream substrate Erk1. To be noted: dose dependent, compared with insulin, FIG. 10. It counts as cell-based, rat. How it is done: as §1, §2
(§3) A similar experiment was conducted with the difference being that the substrates tested were the substrates of the kinase associated signal transduction that are more downstream in the pathway: Erk1, and p38-MAP.

The test system of a further test is p38-MAP. The test can be described thus: Western blot, phosphorylation of downstream substrate p38-MAP. It counts as cell-based, rat. To be noted: dose dependent, compared with insulin, FIG. 10. How it is done: as §1, §2, §3
For a further test, the system named is IRK substrates. The test can be described thus: Western blot of FIG. 10 as worded in the figure legend. It counts as cell-based, rat. The conditions noted are these: FIG. 10 legend. On the procedure: as §1, §3
Another test has as its system male Sabra rats. The test can be described thus: Blood glucose in streptozotocin-induced diabetic rats. The test is classed as in vivo, rat. To be noted: 10 mg/animal I.P., insulin 0.125 units/animal one hour later. How it is done: Diabetes was induced in male Sabra rats (150-200 gr) by I.P. injection of streptozotocin (Sigma, S0130) 60 mg/Kg dissolved in ph 4.5 saline (Biochemical and biophysical research comunications 197(3): 1549-1555 (1993)), which is known to destroy insulin-secreting pancreatic cells. After 2-7 days the rats were all diabetic, as determined by blood glucose level above 200 mg/dl which was measured with glucometer.
12 rats were divided into 3 groups, with homogenic blood glucose level, each consisting of 4 animals
Group I was administered with K094A107 (SEQ ID NO: 102) 10 mg/animal (I.P.) followed by administration of insulin 0.125 units/animal (low concentration of insulin that nearly doesn't give any significant decrease in blood glucose level) one hour later.
Group II was administered with K094A205 (A-region in SEQ ID NO: 123) 10 mg/animal (I.P.) followed by insulin 0.125 units/animal one hour later.
Group III served as control and was administered I.P. with vehicle (NAC/DMSO-DIDV) followed by insulin 0.125 units/animal one hour later.

The test system of a further test is neural crest cells. The test can be described thus: Emigration of neural crest cells from explanted neural primordia. The test is classed as cell-based, quail. From the text:
The procedure for explants of neural primordia is described in greater detail in Sela-Donefeld and Kalcheim (Development, 125(21): 4749-4762 (1999)), the teaching of which was incorporated herein by reference.
The trunk region of 16 somite-old quail embryos was separately sectioned at the level of the segmental plate plus the last 2 epithelial somite pairs. Neural primordia consisting of the neural tube and premigratory neural crest cells were isolated from adjacent tissues with 25% pancreatin in PBS, transferred to PBS supplemented with 5% newborn calf serum to stop enzymatic activity and washed in serum-free culture medium prior to explanation. The neural primordia were then explanted onto multi-well chamber slides that were pre-coated with fibronectin (50 μg/ml) for 1 hour. The neural primordia were cultured in 50 μl of either serum-free CHO—S-SFMII medium (GibcoBRL, USA) or condition medium of noggin producing-CHO cells, in the absence or presence of the tested compound, in a final concentration of 5 μM and incubated in a humid chamber for 24 hours. At the end of the incubation, the primordia were gently washed with PBS and fixed with Bouin's fluid, washed 3 times with PBS, dried and covered.

4 molecules from patent US20020137141A1, “Short peptides from the 'A-region' of protein kinases which selectively modulate protein kinase activity” (Children's Medical Center Corporation, priority 2000, published 2002) can be followed below.

Where no end group is shown, it is not given here. Bounds are passed on as bounds.

With “K094A107: compound comprising an IRK A-region derived peptide, N-myristylated and C-amidated (GGFTCHHVVRL-NH2; not fully specified (N-terminus))”, in the test with adipose cells (10 μM compound in the presence of 10 μU/ml insulin), the “glucose uptake in combination with insulin” value was “synergistic”. For the same molecule, the glucose uptake entry in the test on adipose cells was “increase glucose uptake levels beyond the level of control glucose uptake”. In the test with adipose cells (different concentrations of the compound (FIG. 6B)), the “glucose uptake, dose dependence” value is recorded as “induce glucose uptake in a dose-dependent manner”. Further, the “phosphorylation of IRK” value in the test on IRK is given as “able to increase phosphorylation”. The “phosphorylation of PKB” value in the test with PKB is listed as “able to increase phosphorylation”. Further, in the test with Erk1, the “phosphorylation of ERK1” value is “increase the phosphorylation of ERK1 and p38-MAP in a dose dependent manner”. In the test with p38-MAP, the “phosphorylation of p38-MAP” value was “increase the phosphorylation of ERK1 and p38-MAP in a dose dependent manner”. Moreover, in the test with IRK substrates, the “phosphorylation of IRK substrates” value is “decrease of phosphorylation of IRK substrates, in a dose dependent manner”.
“K094A205: compound comprising IRK A-region derived sequence, kept in a reducing environment (GGFTCHHVVRL; IRK)”: the glucose uptake entry with adipose cells is “increase glucose uptake levels beyond the level of control glucose uptake”. In addition, the “time at which effect of a single administration on blood glucose was still notable” value with male Sabra rats is no less than 24 h. Further, in the test with male Sabra rats (measured for 24 hours, vs vehicle plus insulin), the glucose blood levels entry is reported as “marked reduction”.
Regarding “K098A100: compound comprising ALK-3-derived A-region peptide (GLMRHENILGF; Alk3)”, in the test on neural crest cells (5 μM compound, 24 hours, condition medium of noggin producing-CHO cells), the “neural crest migration in the presence of noggin” value is “overcomes this inhibition and induces neural crest migration”. Further, the “number of migrating neural crest cells” value with neural crest cells (5 μM compound, 24 hours, serum-free medium, absence of noggin) was “the number of migrating cells is higher”.

B1: Noggin: specific inhibitor of BMP-4; condition medium of noggin producing-CHO cells (protein, UniProt Q13253 28-232, looked up)
Noggin: QHYLHIRPAPSDNLPLVDLIEHPDPIFDPKEKDLNETLLRSLLGGHYDPGFMATSPPEDRPGGGGGAAGGAEDLAELDQLLRQRPSGAMPSEIKGLEFSEGLAQGKKQRLSKKLRRKLQMWLWSQTFCPVLYAWNDLGSRFWPRYVKVGSCFSKRSCSVPEGMVCKPSKSVHLTVLRWRCQRRGGQRCGWIPIQYPIISECKCSC
modifications: CHO conditioned medium
notes: condition medium of noggin producing-CHO cells
For the molecule B1, in the test on neural crest cells (noggin alone, no compound), the neural crest migration result is on record as “blocks the neural crest migration”.
